# Data taken from patent US12157730B2, “Heteroaryl derivative, method for producing same, and pharmaceutical composition comprising same as effective component” (VORONOI INC., priority 2019, dated 2024).
# Target: T1, Ba/F3 cell EGFR Exon20 ins NPH (Homo sapiens, UniProt P00533, INS773NPH)
# T1 construct: expressed in transfected cells; host or cells: Ba/F3
# Assay: Ba/F3 cell proliferation suppression, EGFR Exon20 ins NPH
# Assay type: cell-based
# Conditions: GI50 class; Ba/F3 cell line with NPH inserted at Exon20 of EGFR; 72 hours
# Outline: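 Seed 3000–5000 cells/well; after 24 h add compound (12 conc., 0.3 nM–50 um final); incubate 72 h; add CellTiter-Glo, 10 min room temperature; read luminescence; GI50 from % growth vs control, triplicate.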
row,Compound,Ba/F3 (NPH) Activity
1,"C=CC(=O)Nc1cc(Nc2cc(N3OCC[C@@H]3c3cccc(C#N)c3)ncn2)c(OC)cc1N(C)CCN(C)C [compound 392, N-(5-((6-((R)-3-(3-cyanophenyl)isoxazolidine-2-yl)pyrimidine-4-yl)amino)-2-((2-(dimethylamino)ethyl)(methyl)amino)-4-methoxyphenyl) acrylamide]",A (GI50 < 50 nM)
2,"C=CC(=O)Nc1cc(Nc2cc(N3OCC[C@@H]3c3cccc4ccccc34)ncn2)c(OC)cc1N1CCC(N2C[C@@H]3C[C@H]2CO3)CC1 [compound 489, N-(2-(4-((1S,4S)-2-oxa-5-azabicyclo[2.2.1]heptane-5-yl)piperidine-1-yl)-4-methoxy-5-((6-((R)-3-(naphthalene-1-yl)isoxazolidine-2-yl)pyrimidine-4-yl)amino)phenyl)acrylamide]",A (GI50 < 50 nM)
3,"C=CC(=O)Nc1cc(Nc2cc(N3OCC[C@@H]3c3ccc4ccccc4c3)ncn2)c(OC)cc1N1CCC(N(C)C)CC1 [compound 510, N-(2-(4-(dimethylamino)piperidine-1-yl)-4-methoxy-5-((6-((R)-3-(naphthalene-2-yl)isoxazolidine-2-yl)pyrimidine-4-yl)amino)phenyl)acrylamide]",B (50 nM ≤ GI50 < 500 nM)
4,"C=CC(=O)Nc1cc(Nc2cc(N3OCC[C@@H]3c3cccc(F)c3)ncn2)c(OC)cc1N1CCC(N2CCN(C3CC3)CC2)CC1 [Example 64, N-(2-(4-(4-cyclopropylpiperazine-1-yl)piperidine-1-yl)-5-((6-((R)-3-(3-fluorophenyl)isoxazolidine-2-yl)pyrimidine-4-yl)amino)-4-methoxyphenyl) acrylamide]",A (GI50 < 50 nM)
5,"C=CC(=O)Nc1cc(Nc2cc(N3OCC[C@@H]3c3ccc(F)c(F)c3F)ncn2)c(OC)cc1N1CCC(N2CCN(C)CC2)CC1 [compound 620, N-(4-methoxy-2-(4-(4-methylpiperazine-1-yl)piperidine-1-yl)-5-((6-((R)-3-(2,3,4-trifluorophenyl)isoxazolidine-2-yl)pyrimidine-4-yl)amino)phenyl)acrylamide]",A (GI50 < 50 nM)
6,"C=CC(=O)Nc1cc(Nc2cc(N3OCC[C@@H]3c3cccc(F)c3F)ncn2)c(OC)cc1N1CCC(N2CCN(C)[C@H](C)C2)CC1 [compound 336, N-(5-((6-((R)-3-(2,3-difluorophenyl)isoxazolidine-2-yl)pyrimidine-4-yl)amino)-2-(4-((R)-3,4-dimethylpiperazine-1-yl)piperidine-1-yl)-4-methoxyphenyl) acrylamide]",A (GI50 < 50 nM)
7,"C=CC(=O)Nc1cc(Nc2cc(N3OCC[C@@H]3c3ccc(F)c(F)c3F)ncn2)c(OC)cc1N1CCC(N2CCC(N(C)C)CC2)CC1 [compound 656, N-(2-(4-(dimethylamino)-[1,4'-bipiperidine]-1'-yl)-4-methoxy-5-((6-((R)-3-(2,3,4-trifluorophenyl)isoxazolidine-2-yl)pyrimidine-4-yl)amino)phenyl)acrylamide]",B (50 nM ≤ GI50 < 500 nM)
8,"C=CC(=O)Nc1cc(Nc2cc(N3OCC[C@@H]3c3cc(F)ccc3F)ncn2)c(OC)cc1N1CCC(N2C[C@H](C)N(C3CC3)C[C@H]2C)CC1 [Example 173, N-(2-(4-((2R,5S)-4-cyclopropyl-2,5-dimethylpiperazine-1-yl)piperidine-1-yl)-5-((6-((R)-3-(2,5-difluorophenyl)isoxazolidine-2-yl)pyrimidine-4-yl)amino)-4-methoxyphenyl) acrylamide]",A (GI50 < 50 nM)
9,"C=CC(=O)Nc1cc(Nc2cc(N3OCC[C@@H]3c3cccc(Cl)c3)ncn2)c(OC)cc1N1CCN(CC)CC1 [compound 411, N-(5-((6-((R)-3-(3-chlorophenyl)isoxazolidine-2-yl)pyrimidine-4-yl)amino)-2-(4-ethylpiperazine-1-yl)-4-methoxyphenyl) acrylamide]",A (GI50 < 50 nM)
10,"C=CC(=O)Nc1cc(Nc2cc(N3OCC[C@@H]3c3ccc(C)nc3)ncn2)c(OC)cc1N(C)CCN(C)C [Example 36, N-(2-((2-(dimethylamino)ethyl)(methyl)amino)-4-methoxy-5-((6-((R)-3-(6-methylpyridine-3-yl)isoxazolidine-2-yl)pyrimidine-4-yl)amino)phenyl) acrylamide]",A (GI50 < 50 nM)
11,"C=CC(=O)Nc1cc(Nc2cc(N3OCC[C@@H]3c3ccc(F)cc3F)ncn2)c(OC)cc1N1CCC(N2C[C@@H]3C[C@H]2CN3CC)CC1 [compound 382, N-(5-((6-((R)-3-(2,4-difluorophenyl)isoxazolidine-2-yl)pyrimidine-4-yl)amino)-2-(4-((1S,4S)-5-ethyl-2,5-diazabicyclo [2.2.1]heptane-2-yl)piperidine-1-yl)-4-methoxyphenyl) acrylamide]",A (GI50 < 50 nM)
12,"C=CC(=O)Nc1cc(Nc2cc(N3OCC[C@@H]3c3cccc(Cl)c3C)ncn2)c(OC)cc1N1CCC(N2CCN(C3CC3)[C@@H](C)C2)CC1 [Example 153, N-(5-((6-((R)-3-(3-chloro-2-methylphenyl)isoxazolidine-2-yl)pyrimidine-4-yl)amino)-2-(4-((S)-4-cyclopropyl-3-methylpiperazine-1-yl)piperidine-1-yl)-4-methoxyphenyl) acrylamide]",A (GI50 < 50 nM)
13,"C=CC(=O)Nc1cc(Nc2cc(N3OCC[C@@H]3c3ccc(F)c(Cl)c3)ncn2)c(OC)cc1N1C[C@@H]2C[C@H]1CO2 [compound 902, N-(2-((1S,4S)-2-oxa-5-azabicyclo [2.2.1]heptane-5-yl)-5-((6-((R)-3-(3-chloro-4-fluorophenyl)isoxazolidine-2-yl)pyrimidine-4-yl)amino)-4-methoxyphenyl) acrylamide]",A (GI50 < 50 nM)
14,"C=CC(=O)Nc1cc(Nc2cc(N3OCC[C@@H]3c3ccc(C)nc3)ncn2)c(OC)cc1N1CCN(C)CC1 [Example 44, N-(4-methoxy-2-(4-methylpiperazine-1-yl)-5-((6-((R)-3-(6-methylpyridine-3-yl)isoxazolidine-2-yl)pyrimidine-4-yl)amino)phenyl) acrylamide]",B (50 nM ≤ GI50 < 500 nM)
15,"C=CC(=O)Nc1cc(Nc2cc(N3OCC[C@@H]3Cc3cccc(Cl)c3Cl)ncn2)c(OC)cc1N1CCN(CC)CC1 [compound 1008, N-(5-((6-((S)-3-(2,3-dichlorobenzyl)isoxazolidine-2-yl)pyrimidine-4-yl)amino)-2-(4-ethylpiperazine-1-yl)-4-methoxyphenyl) acrylamide]",A (GI50 < 50 nM)
16,"C=CC(=O)Nc1cc(Nc2cc(N3OCC[C@@H]3c3cccc(Cl)c3C)ncn2)c(OC)cc1N1CCC(N2CCOCC2)CC1 [compound 486, N-(5-((6-((R)-3-(3-chloro-2-methylphenyl)isoxazolidine-2-yl)pyrimidine-4-yl)amino)-4-methoxy-2-(4-morpholinopiperidine-1-yl)phenyl)acrylamide]",A (GI50 < 50 nM)
17,"C=CC(=O)Nc1cc(Nc2cc(N3OCC[C@@H]3c3cccc(F)c3F)ncn2)c(OC)cc1N1CCN(C)C[C@@H]1C [compound 886, N-(5-((6-((R)-3-(2,3-difluorophenyl)isoxazolidine-2-yl)pyrimidine-4-yl)amino)-2-((S)-2,4-dimethylpiperazine-1-yl)-4-methoxyphenyl) acrylamide]",A (GI50 < 50 nM)
18,"C=CC(=O)Nc1cc(Nc2cc(N3OCC[C@@H]3c3ccc(F)c(Cl)c3)ncn2)c(OC)cc1N1C[C@H]2CCN(C)[C@H]2C1 [compound 317, N-(5-((6-((R)-3-(3-chloro-4-fluorophenyl)isoxazolidine-2-yl)pyrimidine-4-yl)amino)-4-methoxy-2-((3aR, 6aR)-1-methylhexahydropyrrolo [3,4-b]pyrrole-5(1H)-yl)phenyl)acrylamide]",A (GI50 < 50 nM)
19,"C=CC(=O)Nc1cc(Nc2cc(N3OCC[C@@H]3c3cc(F)cc(F)c3)ncn2)c(OC)cc1N1CCC(N2CCO[C@@H](C)C2)CC1 [compound 757, N-(5-((6-((R)-3-(3,5-difluorophenyl)isoxazolidine-2-yl)pyrimidine-4-yl)amino)-4-methoxy-2-(4-((S)-2-methylmorpholino)piperidine-1-yl)phenyl) acrylamide]",A (GI50 < 50 nM)
20,"C=CC(=O)Nc1cc(Nc2cc(N3OCC[C@@H]3c3cccc(C#N)c3)ncn2)c(OC)cc1N1CCC(O)CC1 [compound 390, N-(5-((6-((R)-3-(3-cyanophenyl)isoxazolidine-2-yl)pyrimidine-4-yl)amino)-2-(4-hydroxypiperidine-1-yl)-4-methoxyphenyl) acrylamide]",B (50 nM ≤ GI50 < 500 nM)
21,"C=CC(=O)Nc1cc(Nc2cc(N3OCC[C@H]3c3c(F)cccc3F)ncn2)c(OC)cc1N1CCC(N2CCN(C(C)=O)CC2)CC1 [compound 310, N-(2-(4-(4-acetylpiperazine-1-yl)piperidine-1-yl)-5-((6-((S)-3-(2,6-difluorophenyl)isoxazolidine-2-yl)pyrimidine-4-yl)amino)-4-methoxyphenyl) acrylamide]",C (500 nM ≤ GI50 < 5000 nM)
22,"C=CC(=O)Nc1cc(Nc2cc(N3OCC[C@@H]3c3cc(F)cc(F)c3)ncn2)c(OC)cc1N1CCC(N2C[C@H]3C[C@@H]2CN3CC)CC1 [Example 267, N-(5-((6-((R)-3-(3,5-difluorophenyl)isoxazolidine-2-yl)pyrimidine-4-yl)amino)-2-(4-((1R,4R)-5-ethyl-2,5-diazabicyclo[2.2.1]heptane-2-yl)piperidine-yl)-4-1-methoxyphenyl) acrylamide]",A (GI50 < 50 nM)
23,"C=CC(=O)Nc1cc(Nc2cc(N3OCC[C@@H]3c3cccc(Cl)c3C)ncn2)c(OC)cc1N1CCC(N2CCN(CCC)CC2)CC1 [compound 582, N-(5-((6-((R)-3-(3-chloro-2-methylphenyl)isoxazolidine-2-yl)pyrimidine-4-yl)amino)-4-methoxy-2-(4-(4-propylpiperazine-1-yl)piperidine-1-yl)phenyl) acrylamide]",A (GI50 < 50 nM)
